Measurements reported in patent US8026243B2, “[4,5′]Bipyrimidinyl-6,4′-diamine derivatives as protein kinase inhibitors” (Novartis AG, priority 2006, dated 2011).

target: T1, Ba/F3-TEL-FGFR3 cells (Homo sapiens, UniProt P22607); test: FGFR3 cellular assay: proliferation of transformed Ba/F3-TEL-FGFR3 cells (AlamarBlue); type: cell-based; details: 48 hours incubation, class symbols
T1 construct: fused on or other part: The N-terminal oligomerising part of TEL (ETV6) is fused before the intracellular kinase part of FGFR3; P41212 (Transcription factor ETV6)
T1 sequence (P22607 whole entry, change not shown, the tested form may be a part): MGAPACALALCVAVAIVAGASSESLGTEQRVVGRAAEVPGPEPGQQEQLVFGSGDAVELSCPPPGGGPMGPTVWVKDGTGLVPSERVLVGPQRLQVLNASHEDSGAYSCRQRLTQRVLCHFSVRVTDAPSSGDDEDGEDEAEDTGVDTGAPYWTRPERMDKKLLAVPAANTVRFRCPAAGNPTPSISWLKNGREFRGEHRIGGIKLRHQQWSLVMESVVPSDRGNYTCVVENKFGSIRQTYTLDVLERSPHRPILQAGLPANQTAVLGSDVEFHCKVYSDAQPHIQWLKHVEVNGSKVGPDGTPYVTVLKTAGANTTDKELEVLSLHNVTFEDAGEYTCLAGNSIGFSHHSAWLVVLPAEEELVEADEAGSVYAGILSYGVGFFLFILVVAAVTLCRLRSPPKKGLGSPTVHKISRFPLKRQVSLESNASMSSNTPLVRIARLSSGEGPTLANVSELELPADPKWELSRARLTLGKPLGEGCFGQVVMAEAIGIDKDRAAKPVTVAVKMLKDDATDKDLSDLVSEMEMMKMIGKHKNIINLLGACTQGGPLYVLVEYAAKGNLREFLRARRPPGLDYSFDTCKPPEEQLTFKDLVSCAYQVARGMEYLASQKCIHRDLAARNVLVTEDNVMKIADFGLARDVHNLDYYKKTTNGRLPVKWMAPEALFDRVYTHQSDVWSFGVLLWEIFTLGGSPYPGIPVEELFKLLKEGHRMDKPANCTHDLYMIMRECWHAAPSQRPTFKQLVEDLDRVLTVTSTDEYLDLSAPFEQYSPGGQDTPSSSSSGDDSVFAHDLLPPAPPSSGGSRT
Description: Compounds of the invention are tested for their ability to inhibit transformed Ba/F3-TEL-FGFR3 cells proliferation, which is dependent on FGFR3 cellular kinase activity. Ba/F3-TEL-FGFR3 are cultured up to 800,000 cells/mL in suspension, with RPMI 1640 supplemented with 10% fetal bovine serum as the culture medium. Cells are dispensed into 384-well format plate at 5000 cell/well in […], culture medium. Compounds of the invention are dissolved and diluted in dimethylsulfoxide (DMSO). Twelve points 1:3 serial dilutions are made into DMSO to create concentrations gradient ranging typically from 10 mM to 0.05 μM. Cells are added with 50 nL of diluted compounds and incubated for 48 hours in cell culture incubator. AlamarBlue® (TREK Diagnostic Systems), which can be used to monitor the reducing environment created by proliferating cells, are added to cells at final concentration of 10%. After additional four hours of incubation in a 37° C. cell culture incubator, fluorescence signals from reduced AlamarBlue® (Excitation at 530 nm, Emission at 580 nm) are quantified on Analyst GT (Molecular Devices Corp.). IC50 values are calculated by linear regression analysis of the percentage inhibition of each compound at 12 concentrations.

| GI50 | Structure (SMILES) |
| --- | --- |
| < 0.1 µM | COc1cc(OC)c(Cl)c(Nc2ncncc2-c2cc(Nc3ccc(CN4CCOCC4)cn3)ncn2)c1C [Compound 52, N4′-(2-Chloro-3,5-dimethoxy-6-methyl-phenyl)-N6-(5-morpholin-4-ylmethyl-pyridin-2-yl)-[4,5′]bipyrimidinyl-6,4′-diamine] |
| < 0.1 µM | CCN1CCN(Cc2ccc(Nc3cc(-c4cncnc4Nc4c(C)c(OC)cc(OC)c4Cl)ncn3)nc2)CC1 [Compound 53, N4′-(2-Chloro-3,5-dimethoxy-6-methyl-phenyl)-N6-[5-(4-ethyl-piperazin-1-ylmethyl)-pyridin-2-yl]-[4,5′]bipyrimidinyl-6,4′-diamine] |
| < 0.1 µM | COc1cc(OC)c(Cl)c(Nc2ncncc2-c2cc(Nc3cc(CN4CCOCC4)ccn3)ncn2)c1C [Compound 54, N4′-(2-Chloro-3,5-dimethoxy-6-methyl-phenyl)-N6-(4-morpholin-4-ylmethyl-pyridin-2-yl)-[4,5′]bipyrimidinyl-6,4′-diamine] |
| < 0.1 µM | CCN1CCN(c2ccc(Nc3cc(-c4cncnc4Nc4c(Cl)c(OC)cc(C(=O)NC5CC5)c4Cl)ncn3)nc2)CC1 [Compound 55, 2,4-Dichloro-N-cyclopropyl-3-{6-[5-(4-ethyl-piperazin-1-yl)-pyridin-2-ylamino]-[4,5′]bipyrimidinyl-4′-ylamino}-5-methoxy-benzamide] |
| < 0.1 µM | COc1cc(OC)c(Cl)c(Nc2ncncc2-c2cc(Nc3cc(CCN4CCOCC4)ccn3)ncn2)c1F [Compound 56, N4′-(2-Chloro-6-fluoro-3,5-dimethoxy-phenyl)-N6-[4-(2-morpholin-4-yl-ethyl)-pyridin-2-yl]-[4,5′]bipyrimidinyl-6,4′-diamine] |
| < 0.1 µM | COc1cc(C(=O)NC2CC2)c(Cl)c(Nc2ncncc2-c2cc(Nc3ccc(CN4CCOCC4)cn3)ncn2)c1Cl [Compound 57, 2,4-Dichloro-N-cyclopropyl-5-methoxy-3-[6-(5-morpholin-4-ylmethyl-pyridin-2-ylamino)-[4,5′]bipyrimidinyl-4′-ylamino]-benzamide] |
| < 0.1 µM | CCN1CCN(Cc2ccc(Nc3cc(-c4cncnc4Nc4c(Cl)c(OC)cc(C(=O)NC5CC5)c4Cl)ncn3)nc2)CC1 [Compound 58, 2,4-Dichloro-N-cyclopropyl-3-{6-[5-(4-ethyl-piperazin-1-ylmethyl)-pyridin-2-ylamino]-[4,5′]bipyrimidinyl-4′-ylamino}-5-methoxy-benzamide] |
| < 0.1 µM | CCN1CCN(c2ccc(Nc3cc(-c4cncnc4Nc4c(F)c(OC)cc(OC)c4Cl)ncn3)cc2)CC1 [Compound 59, N4′-(2-Chloro-6-fluoro-3,5-di-methoxy-phenyl)-N6-[4-(4-ethyl-piperazin-1-yl)-phenyl]-[4,5′]bipyrimidinyl-6,4′-diamine] |
| < 0.1 µM | COc1cc(OC)c(Cl)c(Nc2ncncc2-c2cc(Nc3cc(CN4CCCC4)ccn3)ncn2)c1F [Compound 60, N4′-(2-Chloro-6-fluoro-3,5-dimethoxy-phenyl)-N6-(4-pyrrolidin-1-ylmethyl-pyridin-2-yl)-[4,5′]bipyrimidinyl-6,4′-diamine] |
| < 0.1 µM | COc1cc(OC)c(Cl)c(Nc2ncncc2-c2cc(Nc3ccc(CN4CCN(C(C)=O)CC4)cn3)ncn2)c1F [Compound 61, 1-(4-{6-[4′-(2-Chloro-6-fluoro-3,5-dimethoxy-phenylamino)-[4,5′]bipyrimidinyl-6-ylamino]-pyridin-3-ylmethyl}-piperazin-1-yl)-ethanone] |
| < 0.1 µM | CCN1CCN(c2ccc(Nc3cc(-c4cncnc4Nc4c(F)c(OC)cc(OC)c4F)ncn3)nc2)CC1 [Compound 62, N4′-(2,6-Difluoro-3,5-dimethoxy-phenyl)-N6-[5-(4-ethyl-piperazin-1-yl)-pyridin-2-yl]-[4,5′]bipyrimidinyl-6,4′-diamine] |
| < 0.1 µM | COc1cc(OC)c(F)c(Nc2ncncc2-c2cc(Nc3ccc(CN4CCOCC4)cn3)ncn2)c1F [Compound 63, N4′-(2,6-Difluoro-3,5-dimethoxy-phenyl)-N6-(5-morpholin-4-ylmethyl-pyridin-2-yl)-[4,5′]bipyrimidinyl-6,4′-diamine] |
| < 0.1 µM | CCN1CCN(Cc2ccc(Nc3cc(-c4cncnc4Nc4c(F)c(OC)cc(OC)c4F)ncn3)nc2)CC1 [Compound 64, N4′-(2,6-Difluoro-3,5-dimethoxy-phenyl)-N6-[5-(4-ethyl-piperazin-1-ylmethyl)-pyridin-2-yl]-[4,5′]bipyrimidinyl-6,4′-diamine] |
| < 0.1 µM | COc1cc(OC)c(F)c(Nc2ncncc2-c2cc(Nc3cc(CN4CCOCC4)ccn3)ncn2)c1F [Compound 65, N4′-(2,6-Difluoro-3,5-dimethoxy-phenyl)-N6-(4-morpholin-4-ylmethyl-pyridin-2-yl)-[4,5′]bipyrimidinyl-6,4′-diamine] |
| < 0.1 µM | COc1cc(OC)c(F)c(Nc2ncncc2-c2cc(Nc3ccc(CN4CCN(C(C)=O)CC4)cn3)ncn2)c1F [Compound 66, 1-(4-{6-[4′-(2,6-Difluoro-3,5-dimethoxy-phenylamino)-[4,5′]bipyrimidinyl-6-ylamino]-pyridin-3-ylmethyl}-piperazin-1-yl)-ethanone] |
| < 0.1 µM | COc1cc(C(=O)NC2CC2)c(Cl)c(Nc2ncncc2-c2cc(Nc3ccc(CN4CCN(C(C)=O)CC4)cn3)ncn2)c1Cl [Compound 67, 3-{6-[5-(4-Acetyl-piperazin-1-ylmethyl)-pyridin-2-ylamino]-[4,5′]bipyrimidinyl-4′-ylamino}-2,4-dichloro-N-cyclopropyl-5-methoxy-benzamide] |
| < 0.1 µM | COc1cc(Nc2ncncc2-c2cc(Nc3ccc(CN4CCOCC4)cn3)ncn2)c(F)c(OC)c1 [Compound 68, N4′-(2-Fluoro-3,5-dimethoxy-phenyl)-N6-(5-morpholin-4-ylmethyl-pyridin-2-yl)-[4,5′]bipyrimidinyl-6,4′-diamine] |
| < 0.1 µM | CCN1CCN(Cc2ccc(Nc3cc(-c4cncnc4Nc4cc(OC)cc(OC)c4F)ncn3)nc2)CC1 [Compound 69, N6-[5-(4-Ethyl-piperazin-1-ylmethyl)-pyridin-2-yl]-N4′-(2-fluoro-3,5-dimethoxy-phenyl)-[4,5′]bipyrimidinyl-6,4′-diamine] |
| < 0.1 µM | COc1cc(Nc2ncncc2-c2cc(Nc3ccc(CN4CCN(CCO)CC4)cn3)ncn2)c(F)c(OC)c1 [Compound 70, 2-(4-{6-[4′-(2-Fluoro-3,5-dimethoxy-phenylamino)-[4,5′]bipyrimidinyl-6-ylamino]-pyridin-3-ylmethyl}-piperazin-1-yl)-ethanol] |
| < 0.1 µM | COc1cc(Nc2ncncc2-c2cc(Nc3cc(CN4CCOCC4)ccn3)ncn2)c(F)c(OC)c1 [Compound 71, N4′-(2-Fluoro-3,5-dimethoxy-phenyl)-N6-(4-morpholin-4-ylmethyl-pyridin-2-yl)-[4,5′]bipyrimidinyl-6,4′-diamine] |
| < 0.1 µM | CCN1CCN(c2ccc(Nc3cc(-c4cncnc4Nc4cc(OC)cc(OC)c4F)ncn3)nc2)CC1 [Compound 72, N6-[5-(4-Ethyl-piperazin-1-yl)-pyridin-2-yl]-N4′-(2-fluoro-3,5-dimethoxy-phenyl)-[4,5′]bipyrimidinyl-6,4′-diamine] |
| < 0.1 µM | COc1cc(OC)c(Cl)c(Nc2ncncc2-c2cc(Nc3ccc(CN4CCN(CCO)CC4)cn3)ncn2)c1F [Compound 73, 2-(4-{6-[4′-(2-Chloro-6-fluoro-3,5-dimethoxy-phenylamino)-[4,5′]bipyrimidinyl-6-ylamino]-pyridin-3-ylmethyl}-piperazin-1-yl)-ethanol] |
| < 0.1 µM | COc1cc(OC)c(F)c(Nc2ncncc2-c2cc(Nc3ccc(CN4CCN(CCO)CC4)cn3)ncn2)c1F [Compound 74, 2-(4-{6-[4′-(2,6-Difluoro-3,5-di-methoxy-phenylamino)-[4,5′]bipyrimidinyl-6-ylamino]-pyridin-3-ylmethyl}-piperazin-1-yl)-ethanol] |
| < 0.1 µM | COc1cc(OC)c(Cl)c(Nc2ncncc2-c2cc(Nc3ccc(CN4CCN(CCO)CC4)cn3)ncn2)c1Cl [Compound 75, 2-(4-{6-[4′-(2,6-Dichloro-3,5-dimethoxy-phenylamino)-[4,5′]bipyrimidinyl-6-yl-amino]-pyridin-3-ylmethyl}-piperazin-1-yl)-ethanol] |
| < 0.1 µM | COc1cc(OC)c(Cl)c(Nc2ncncc2-c2cc(Nc3ccc(CN4CCN(CCO)CC4)cn3)ncn2)c1C [Compound 76, 2-(4-{6-[4′-(2-Chloro-3,5-dimethoxy-6-methyl-phenylamino)-[4,5′]bipyrimidinyl-6-ylamino]-pyridin-3-ylmethyl}-piperazin-1-yl)-ethanol] |
| < 0.1 µM | COc1cc(OC)c(Cl)c(Nc2ncncc2-c2cc(Nc3cccc(C(C)O)c3)ncn2)c1F (stereo not shown) [Compound 77, 1-{3-[4′-(2-Chloro-6-fluoro-3,5-dimethoxy-phenylamino)-[4,5′]bipyrimidinyl-6-yl-amino]-phenyl}-ethanol] |
| < 0.1 µM | COc1cc(OC)c(F)c(Nc2ncncc2-c2cc(Nc3cccc(C(C)O)c3)ncn2)c1F (stereo not shown) [Compound 78, 1-{3-[4′-(2,6-Difluoro-3,5-dimethoxy-phenylamino)-[4,5′]bipyrimidinyl-6-ylamino]-phenyl}-ethanol] |
| < 0.1 µM | COc1cc(OC)c(Cl)c(Nc2ncncc2-c2cc(Nc3ccc(C(C)O)cn3)ncn2)c1F (stereo not shown) [Compound 79, 1-{6-[4′-(2-Chloro-6-fluoro-3,5-dimethoxy-phenylamino)-[4,5′]bipyrimidinyl-6-ylamino]-pyridin-3-yl}-ethanol] |
